Reference: PubChem BioAssay AID2060486 (Molecular Pharmacology Branch, DTP, NCI, 2025)

Tested on: IGROV1 complex spheroids (HUVEC, MSC), viability % test/control
Assay: Anticancer human tumor IGROV1 cell line growth inhibition [GQUAD];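 also: spheroids exposed to compounds for 7 days before readout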;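 as to viability, T/C: 100% = DMSO vehicle control viability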
Details: for IC50: curve of first compound; for viability, T/C: stronger effect = lower value
Outline: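 Tumor cells were grown as complex spheroids with HUVEC endothelial cells and mesenchymal stem cells as stroma. G-quadruplex stabilizers were combined with targeted agents over half-log dilutions from near the clinical Cmax, or from 10 microM.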

[1] = second compound 0.0316 µM, first compound 0.0316 µM
[2] = second compound 0.0316 µM, first compound 0.1 µM
[3] = second compound 0.0316 µM, first compound 0.316 µM
[4] = second compound 0.0316 µM, first compound 1 µM
[5] = second compound 0.0316 µM, first compound 3.16 µM
[6] = second compound 0.0316 µM, first compound 10 µM
[7] = second compound 0.1 µM, first compound 0.0316 µM
[8] = second compound 0.1 µM, first compound 0.1 µM
[9] = second compound 0.1 µM, first compound 0.316 µM
[10] = second compound 0.1 µM, first compound 1 µM
[11] = second compound 0.1 µM, first compound 3.16 µM
[12] = second compound 0.1 µM, first compound 10 µM
[13] = second compound 0.316 µM, first compound 0.0316 µM
[14] = second compound 0.316 µM, first compound 0.1 µM
[15] = second compound 0.316 µM, first compound 0.316 µM
[16] = second compound 0.316 µM, first compound 1 µM
[17] = second compound 0.316 µM, first compound 3.16 µM
[18] = second compound 0.316 µM, first compound 10 µM
[19] = second compound 1 µM, first compound 0.0316 µM
[20] = second compound 1 µM, first compound 0.1 µM
[21] = second compound 1 µM, first compound 0.316 µM
[22] = second compound 1 µM, first compound 1 µM
[23] = second compound 1 µM, first compound 3.16 µM
[24] = second compound 1 µM, first compound 10 µM
[25] = second compound 3.16 µM, first compound 0.0316 µM
[26] = second compound 3.16 µM, first compound 0.1 µM
[27] = second compound 3.16 µM, first compound 0.316 µM
[28] = second compound 3.16 µM, first compound 1 µM
[29] = second compound 3.16 µM, first compound 3.16 µM
[30] = second compound 3.16 µM, first compound 10 µM
[31] = second compound 10 µM, first compound 0.0316 µM
[32] = second compound 10 µM, first compound 0.1 µM
[33] = second compound 10 µM, first compound 0.316 µM
[34] = second compound 10 µM, first compound 1 µM
[35] = second compound 10 µM, first compound 3.16 µM
[36] = second compound 10 µM, first compound 10 µM

Q: With `O=c1[nH]cc(F)c(=O)[nH]1` + CN(C)c1ccc(Nc2c3ccc(NC(=O)CCN4CCCC4)cc3nc3cc(NC(=O)CCN4CCCC4)ccc23)cc1 as the molecule, how does the IC50 (second compound 0.0316 µM) read?
A: 6.41 µM

Q: What about the IC50 (second compound 0.1 µM) of the same molecule?
A: 6.78 µM

Q: And the IC50 (second compound 0.316 µM)?
A: 6.4 µM

Q: What about the IC50 (second compound 1 µM) of the same molecule?
A: 5.9 µM

Q: What about the IC50 (second compound 3.16 µM) of the same molecule?
A: 6.18 µM

Q: And the IC50 (second compound 10 µM)?
A: 3.69 µM

Q: What about the viability, T/C [1] of the same molecule?
A: 112%

Q: And the viability, T/C [2]?
A: 96.7%

Q: And the viability, T/C [3]?
A: 104%

Q: What about the viability, T/C [4] of the same molecule?
A: 82.3%

Q: What about the viability, T/C [5] of the same molecule?
A: 90.6%

Q: What about the viability, T/C [6] of the same molecule?
A: 27.7%

Q: What about the viability, T/C [7] of the same molecule?
A: 97.6%

Q: What about the viability, T/C [8] of the same molecule?
A: 94%

Q: What about the viability, T/C [9] of the same molecule?
A: 83.1%

Q: What about the viability, T/C [10] of the same molecule?
A: 84.3%

Q: And the viability, T/C [11]?
A: 90.4%

Q: And the viability, T/C [12]?
A: 29.8%

Q: What about the viability, T/C [13] of the same molecule?
A: 92.1%

Q: What about the viability, T/C [14] of the same molecule?
A: 87.8%

Q: What about the viability, T/C [15] of the same molecule?
A: 96.8%

Q: And the viability, T/C [16]?
A: 88.2%

Q: What about the viability, T/C [17] of the same molecule?
A: 83%

Q: What about the viability, T/C [18] of the same molecule?
A: 29.1%

Q: What about the viability, T/C [19] of the same molecule?
A: 69.5%

Q: What about the viability, T/C [20] of the same molecule?
A: 72%

Q: What about the viability, T/C [21] of the same molecule?
A: 78.8%

Q: What about the viability, T/C [22] of the same molecule?
A: 90.8%

Q: And the viability, T/C [23]?
A: 90.4%

Q: What about the viability, T/C [24] of the same molecule?
A: 24.2%

Q: What about the viability, T/C [25] of the same molecule?
A: 73.3%

Q: And the viability, T/C [26]?
A: 84.8%

Q: What about the viability, T/C [27] of the same molecule?
A: 94.1%

Q: What about the viability, T/C [28] of the same molecule?
A: 86.2%

Q: What about the viability, T/C [29] of the same molecule?
A: 81%

Q: And the viability, T/C [30]?
A: 27.7%

Q: And the viability, T/C [31]?
A: 66.5%

Q: What about the viability, T/C [32] of the same molecule?
A: 58%

Q: What about the viability, T/C [33] of the same molecule?
A: 52.8%

Q: And the viability, T/C [34]?
A: 70.1%

Q: What about the viability, T/C [35] of the same molecule?
A: 55.2%

Q: And the viability, T/C [36]?
A: 16.4%

Q: `COc1ccc([C@@H](O)c2cc(-c3ncnc4cc(N5CCOCC5)ccc34)c(F)cc2Cl)nn1` + Cc1[nH]c2ccc(F)cc2c1-c1nc2c3cccnc3c3ncccc3c2[nH]1 was tested. Which IC50 (second compound 0.0316 µM) did it give?
A: 0.797 µM

Q: And the IC50 (second compound 0.1 µM)?
A: 0.812 µM

Q: And the IC50 (second compound 0.316 µM)?
A: 0.762 µM

Q: What about the IC50 (second compound 1 µM) of the same molecule?
A: < 0.0316 µM

Q: What about the IC50 (second compound 3.16 µM) of the same molecule?
A: < 0.0316 µM

Q: And the IC50 (second compound 10 µM)?
A: < 0.0316 µM

Q: And the viability, T/C [1]?
A: 92%

Q: And the viability, T/C [2]?
A: 76.5%

Q: What about the viability, T/C [3] of the same molecule?
A: 86.5%

Q: And the viability, T/C [4]?
A: 40.7%

Q: What about the viability, T/C [5] of the same molecule?
A: 21.9%

Q: And the viability, T/C [6]?
A: 6.2%

Q: What about the viability, T/C [7] of the same molecule?
A: 92.2%

Q: And the viability, T/C [8]?
A: 89.6%

Q: What about the viability, T/C [9] of the same molecule?
A: 91.5%

Q: What about the viability, T/C [10] of the same molecule?
A: 40.6%

Q: What about the viability, T/C [11] of the same molecule?
A: 19.5%

Q: What about the viability, T/C [12] of the same molecule?
A: 5.14%

Q: And the viability, T/C [13]?
A: 66.3%

Q: And the viability, T/C [14]?
A: 83.1%

Q: And the viability, T/C [15]?
A: 82.6%

Q: And the viability, T/C [16]?
A: 41.5%

Q: And the viability, T/C [17]?
A: 12.3%

Q: What about the viability, T/C [18] of the same molecule?
A: 4.85%

Q: And the viability, T/C [19]?
A: 3.85%

Q: And the viability, T/C [20]?
A: 4.89%

Q: And the viability, T/C [21]?
A: 4.79%

Q: What about the viability, T/C [22] of the same molecule?
A: 4.97%

Q: What about the viability, T/C [23] of the same molecule?
A: 4%

Q: And the viability, T/C [24]?
A: 5.1%

Q: And the viability, T/C [25]?
A: 3.89%

Q: What about the viability, T/C [26] of the same molecule?
A: 4.57%

Q: What about the viability, T/C [27] of the same molecule?
A: 3.71%

Q: And the viability, T/C [28]?
A: 4.88%

Q: And the viability, T/C [29]?
A: 3.87%

Q: And the viability, T/C [30]?
A: 3.46%

Q: And the viability, T/C [31]?
A: 3.68%

Q: And the viability, T/C [32]?
A: 3.5%

Q: What about the viability, T/C [33] of the same molecule?
A: 4.28%

Q: What about the viability, T/C [34] of the same molecule?
A: 4.13%

Q: And the viability, T/C [35]?
A: 5.35%

Q: And the viability, T/C [36]?
A: 3.84%

Q: For `C=CCn1c(=O)c2cnc(Nc3ccc(N4CCN(C)CC4)cc3)nc2n1-c1cccc(C(C)(C)O)n1` + Cc1[nH]c2ccc(F)cc2c1-c1nc2c3cccnc3c3ncccc3c2[nH]1, which IC50 (second compound 0.0316 µM) is on record?
A: 0.141 µM

Q: And the IC50 (second compound 0.1 µM)?
A: 0.155 µM

Q: And the IC50 (second compound 0.316 µM)?
A: < 0.0316 µM

Q: And the IC50 (second compound 1 µM)?
A: < 0.0316 µM

Q: What about the IC50 (second compound 3.16 µM) of the same molecule?
A: < 0.0316 µM

Q: And the IC50 (second compound 10 µM)?
A: < 0.0316 µM

Q: What about the viability, T/C [1] of the same molecule?
A: 98.8%

Q: And the viability, T/C [2]?
A: 66.5%

Q: And the viability, T/C [3]?
A: 10.9%

Q: And the viability, T/C [4]?
A: 3.13%

Q: And the viability, T/C [5]?
A: 2.59%

Q: What about the viability, T/C [6] of the same molecule?
A: 2.44%

Q: What about the viability, T/C [7] of the same molecule?
A: 98.9%

Q: What about the viability, T/C [8] of the same molecule?
A: 72.9%

Q: What about the viability, T/C [9] of the same molecule?
A: 12.7%

Q: What about the viability, T/C [10] of the same molecule?
A: 2.29%

Q: And the viability, T/C [11]?
A: 3.17%

Q: And the viability, T/C [12]?
A: 2.44%

Q: What about the viability, T/C [13] of the same molecule?
A: 40.6%

Q: And the viability, T/C [14]?
A: 19.9%

Q: What about the viability, T/C [15] of the same molecule?
A: 2.19%

Q: And the viability, T/C [16]?
A: 1.65%

Q: What about the viability, T/C [17] of the same molecule?
A: 2.64%

Q: And the viability, T/C [18]?
A: 1.76%

Q: And the viability, T/C [19]?
A: 3.28%

Q: What about the viability, T/C [20] of the same molecule?
A: 3.17%

Q: And the viability, T/C [21]?
A: 2.16%

Q: And the viability, T/C [22]?
A: 2.04%

Q: And the viability, T/C [23]?
A: 2.4%

Q: And the viability, T/C [24]?
A: 1.76%

Q: And the viability, T/C [25]?
A: 3.09%

Q: What about the viability, T/C [26] of the same molecule?
A: 2.89%

Q: What about the viability, T/C [27] of the same molecule?
A: 2.25%

Q: What about the viability, T/C [28] of the same molecule?
A: 1.95%

Q: And the viability, T/C [29]?
A: 2.45%

Q: What about the viability, T/C [30] of the same molecule?
A: 1.48%

Q: What about the viability, T/C [31] of the same molecule?
A: 3.85%

Q: What about the viability, T/C [32] of the same molecule?
A: 2.84%

Q: And the viability, T/C [33]?
A: 2.5%

Q: And the viability, T/C [34]?
A: 2.14%

Q: What about the viability, T/C [35] of the same molecule?
A: 2.23%

Q: And the viability, T/C [36]?
A: 1.57%
